Reference: US8288142B2, “Hyaluronidase and method of use thereof” (priority 2007, dated 2012)
Read-outs that look alike come from different tables or passages of the source.

How the values were obtained:
microbial hyaluronidase = type: biochemical, Streptomyces actinocidus; settings: for effect on hyaluronidase / inhibition of hyaluronidase activity: 10^−2 M; for effect on activity of microbial hyaluronidase: 10^−3-10^−4 M; for inhibition of activity of microbial hyaluronidase: 10^−3 M
[1] = test system: hyaluronidase derived from Stm. Hyalurolyticus; settings: 10^−3-10^−4 M; Ohya 1970; cited from earlier work

| Structure (SMILES) | Hyaluronidase activity (%) (microbial hyaluronidase) | Hyaluronidase activity (%) (microbial hyaluronidase; reagent or salt 10^−2 M) | Hyaluronidase activity (%) (microbial hyaluronidase; reagent or salt 10^−3 M) | Hyaluronidase activity (%) (microbial hyaluronidase; reagent or salt 10^−4 M) | effect on hyaluronidase (microbial hyaluronidase) | effect on activity of microbial hyaluronidase (microbial hyaluronidase) | effect on hyaluronidase derived from Stm. Hyalurolyticus [1] | inhibition of hyaluronidase activity (microbial hyaluronidase) [%] | inhibition of activity of microbial hyaluronidase (microbial hyaluronidase) [%] |
| --- | --- | --- | --- | --- | --- | --- | --- | --- | --- |
| [Cl-].[Cl-].[Co+2] [CoCl2] | 100 | – | – | – | – | – | – | – | – |
| O=S(=O)([O-])[O-].[Fe+2] [FeSO4] | – | 100 | 100 | 100 | – | – | – | – | – |
| OCCS [beta-Mercaptoethanol] | – | 0 | 65 | 100 | completely inhibited | – | – | – | – |
| [Cl-].[Na+] [NaCl] | – | 100 | 100 | 100 | – | – | – | – | – |
| [Cl-].[K+] [KCl] | – | 100 | 100 | 100 | – | – | – | – | – |
| [Ca+2].[Cl-].[Cl-] [CaCl2] | – | 100 | 100 | 100 | – | – | – | – | – |
| [Cl][Mn][Cl] [MnCl2] | – | 100 | 100 | 100 | – | did not affect | inhibit | – | – |
| O=S(=O)([O-])[O-].[Li+].[Li+] [LiSO4] | – | 100 | 100 | 100 | – | – | – | – | – |
| [N-]=[N+]=[N-].[Na+] [Na3N] | – | 100 | 100 | 100 | – | – | – | – | – |
| O=S(=O)([O-])[O-].[Cu+2] [CuSO4] | – | 44 | 85 | 100 | – | – | – | 56 | 25 |
| O=C(O)CN(CCN(CC(=O)O)CC(=O)O)CC(=O)O [EDTA] | – | 95 | 100 | 100 | – | – | – | – | – |
| [Cl][Fe]([Cl])[Cl] [FeCl3] | – | 35 | 85 | 100 | – | – | – | 65 | 25 |
| O=C(O)c1cc[c]([Hg][Cl])cc1 [para-Chloromercury-benzoate] | – | 80 | 100 | 100 | partially inhibited | did not affect | inhibit | – | – |
| II [I2] | – | 0 | 12 | – | – | – | – | – | – |
| O=S(=O)([O-])[O-].[Zn+2] [ZnSO4] | – | 100 | 100 | 100 | – | – | – | – | – |
| [Hg+2] [Hg^2+] | – | – | – | – | – | – | inhibit | – | – |
| O=[N+]([O-])[O-].[Ag+] [AgNO3] | – | 100 | 100 | 100 | – | – | – | – | – |
